According to article PMC7761830, “Structure-Based Virtual Screening of Ultra-Large Library Yields Potent Antagonists for a Lipid GPCR” (Biomolecules, 2020):
Changes are numbered by the printed parent chain. “And” between values parts separate entries of the source, which are not always exact repeats. Equal values may be shown once.

What was measured:
Type in all cases: cell-based
[1] = target: T1, CysLT2R mutant L129Q (Homo sapiens, UniProt Q9NS75, L129Q); experiment: IP1 production assay, constitutively active mutant, direct compound stimulation (inverse agonism); details: for % max inhibition ± SEM of constitutive IP1 accumulation / IC50: HEK293 transiently expressing CysLT2R L129Q; for % max inhibition ± SEM of constitutive IP1 accumulation: WT non-stimulated = 0%, L129Q non-stimulated = 100%; for IC50: compound 1.6 to 100 μM, no agonist, read-out: IC50 ± SEM, inhibition of constitutive IP1 accumulation
T1 construct: expressed in transfected cells; host or cells: HEK293 (ATCC CRL-1573), transient transfection with Lipofectamine 3000
T1 sequence (Q9NS75 1-346 L129Q): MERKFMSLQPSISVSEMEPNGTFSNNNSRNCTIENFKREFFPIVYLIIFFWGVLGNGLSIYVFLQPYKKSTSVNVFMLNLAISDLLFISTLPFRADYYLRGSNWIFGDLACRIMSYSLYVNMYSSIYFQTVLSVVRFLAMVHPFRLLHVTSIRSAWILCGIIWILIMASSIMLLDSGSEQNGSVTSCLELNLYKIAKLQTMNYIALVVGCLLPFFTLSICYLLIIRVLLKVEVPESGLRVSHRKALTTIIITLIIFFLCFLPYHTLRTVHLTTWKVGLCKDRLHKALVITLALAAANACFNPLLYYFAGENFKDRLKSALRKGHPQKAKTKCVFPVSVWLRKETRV
Description: (§1) All 139 selected compounds were screened in a functional assay measuring IP1 production as an indicator of Gαq activation. For this assay, we used the Cisbio IP-One kit as previously described. Human Embryonic Kidney (HEK) 293 cells (ATCC CRL-1573) between passages 5 and 25 were seeded onto poly-L-Lysine-coated 384-well plates at 20,000 cells/well and transfected with 30 ng of cDNA coding for the wild-type CysLT1R or CysLT2R receptors or for the CysLT2R mutant L129Q, using the Lipofectamine 3000 (Thermo Fisher Scientific) transfection agent. At 48 h post-transfection, the media was removed and the cells were washed with fresh Hank’s Balanced Salt Solution (HBSS). […] First, all 139 selected compounds were screened at a 30 µM concentration in both the agonist and antagonist mode in cells transiently expressing the wildtype CysLT1R or CysLT2R receptors. […] For CysLT1R, the compounds retained were BRI-12328, BRI-12334, BRI-12359, BRI-12410, BRI-12411, BRI-12417, BRI-12424, BRI-12435, BRI-12450, and BRI-12458; for CysLT2R, these were BRI-12328, BRI-12334, BRI-12359, BRI-12401, BRI-12402, BRI-12405, BRI-12410, BRI-413, BRI-12417, BRI-12424, BRI-426, BRI-427, BRI-450, BRI-453, BRI-454, BRI-458, and BRI-466. These hits were again tested in the antagonist mode with compound concentrations ranging from 1.56 µM to 100 µM, at 2-fold concentration intervals. The three best hits (BRI-12359, BRI-417, and BRI-424) were also tested using the LTC4 ligand (EC80 concentration) and in cells transiently expressing the constitutively active CysLT2R mutant L129Q. […] After compound stimulation, the cells were incubated for 1 h at 37 °C and stimulated with IP1-D2 and Ab-Crypt reagents in Lysis Buffer. The cells were then incubated at room temperature for an additional hour. The plate was read on a Tecan Genios Pro plate reader using a HTRF (homogeneous time-resolved fluorescence) filter set (λex = 320 nm, λem = 620 and 655 nm). Normalized data were plotted using either the three-parameter or four-parameter EC50/IC50 fits of GraphPad Prism 8 (San Diego). […] Data represent the means ± SEM of at least three independent experiments performed in quadruplicate. For the additional antagonist experiments performed with BRI-12359, we performed Schild analysis in order to determine pA2 values.
This effect would be particularly interesting in the case of the L129Q CysLT2R mutant identified in uveal melanoma patients. We tested these three compounds in the functional IP1 assay using cells transiently expressing the L129Q CysLT2R mutant, directly stimulated with a range of compound concentrations (1.6 to 100 μM).

[2] = target: T2, wild-type CysLT1R (Homo sapiens, UniProt Q9Y271); experiment: IP1 production assay, antagonist mode, LTC4 (EC80) as agonist; details: HEK293, wild-type CysLT1R, LTC4 at EC80; for Ki: functional Ki by Cheng-Prusoff, read-out: CysLT1R (LTC4) Ki ± SEM
T2 construct: expressed in transfected cells; host or cells: HEK293 (ATCC CRL-1573), transient transfection with Lipofectamine 3000
T2 sequence (Q9Y271 1-337): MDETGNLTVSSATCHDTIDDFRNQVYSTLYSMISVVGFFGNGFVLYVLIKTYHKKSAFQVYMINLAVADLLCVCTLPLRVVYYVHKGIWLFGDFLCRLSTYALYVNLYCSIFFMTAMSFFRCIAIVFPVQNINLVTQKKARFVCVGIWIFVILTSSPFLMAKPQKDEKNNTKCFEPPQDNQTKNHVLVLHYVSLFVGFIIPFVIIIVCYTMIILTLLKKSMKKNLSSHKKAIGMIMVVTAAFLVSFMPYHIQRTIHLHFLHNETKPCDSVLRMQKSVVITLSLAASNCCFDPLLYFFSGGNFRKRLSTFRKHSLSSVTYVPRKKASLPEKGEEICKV
Description: as §1

[3] = target: T3, wild-type CysLT2R (Homo sapiens, UniProt Q9NS75); experiment: as above; details: HEK293, wild-type CysLT2R; LTC4 at EC80
T3 construct: expressed in transfected cells; host or cells: HEK293 (ATCC CRL-1573), transient transfection with Lipofectamine 3000
T3 sequence (Q9NS75 1-346): T1 sequence (Q9NS75 1-346 L129Q) with Q129L
Description: as §1

[4] = target: T2, wild-type CysLT1R; experiment: IP1 production assay, antagonist mode, co-stimulation with EC80 LTD4; details: for inhibition at 30 µM: HEK293, compound 30 µM, LTD4 at EC80, HEK293, wild-type CysLT1R, read-out: inhibition of LTD4-induced IP1 production, single-concentration screen; for Emax: HEK293, read-out: CysLT1R (LTD4) % Max Inhibition ± SEM; for extent of inhibition of LTD4-mediated response at CysLT1R (in words): antagonist mode, 1.5 to 100 µM
[5] = target: T3, wild-type CysLT2R; experiment: as above; details: for inhibition at 30 µM: HEK293, compound 30 µM, LTD4 at EC80, HEK293, wild-type CysLT2R, read-out: inhibition of LTD4-induced IP1 production, single-concentration screen; for Emax: HEK293, read-out: CysLT2R (LTD4) % Max Inhibition ± SEM
[6] = target: T4, CysLT1R-WT (Homo sapiens, UniProt Q9Y271); experiment: IP1 production assay, Schild analysis: fixed BRI-12359 then range of LTD4
T4 construct: expressed in transfected cells; host or cells: HEK293 (ATCC CRL-1573), transient transfection with Lipofectamine 3000
T4 sequence (Q9Y271 1-337): T2 sequence (Q9Y271 1-337)
Description: (§2) For this assay, we used the Cisbio IP-One kit as previously described. […] At 48 h post-transfection, the media was removed and the cells were washed with fresh Hank’s Balanced Salt Solution (HBSS). […] After compound stimulation, the cells were incubated for 1 h at 37 °C and stimulated with IP1-D2 and Ab-Crypt reagents in Lysis Buffer. The cells were then incubated at room temperature for an additional hour. […] Normalized data were plotted using either the three-parameter or four-parameter EC50/IC50 fits of GraphPad Prism 8 (San Diego). […] Data represent the means ± SEM of at least three independent experiments performed in quadruplicate.

[7] = target: T5, CysLT2R-WT (Homo sapiens, UniProt Q9NS75); experiment: as above
T5 construct: expressed in transfected cells; host or cells: HEK293 (ATCC CRL-1573), transient transfection with Lipofectamine 3000
T5 sequence (Q9NS75 1-346): T1 sequence (Q9NS75 1-346 L129Q) with Q129L
Description: as §2

Row | Compound | % max inhibition ± SEM of constitutive IP1 accumulation [1] [%] | CysLT1R (LTC4) % Max Inhibition ± SEM [2] [%] | Ki [2] | CysLT2R (LTC4) % Max Inhibition ± SEM [3] [%] | Ki [4] [µM] | remaining activity at 30 µM [4] [%] | inhibition at 30 µM [4] [%] | Emax [4] [%] | extent of inhibition of LTD4-mediated response at CysLT1R (in words) [4] | remaining activity at 30 µM [5] [%] | inhibition at 30 µM [5] [%] | Emax [5] [%] | inhibition of IP1 production by CysLT2R L129Q mutant (in words) ([1]; 100 μM compound) | IC50 [1] | Ki [5] [µM] | extent of inhibition of LTD4-induced response at CysLT2R (in words) ([5]; antagonist mode, 1.5 to 100 µM) | Kb [6] [µM] | pA2 ± SEM ([6]; Schild analysis, CysLT1R-WT, LTD4) | Kb [7] [µM] | pA2 ± SEM ([7]; Schild analysis, CysLT2R-WT, LTD4)
1 | Cn1c(-c2ccc(NC(=O)c3cccc(OCC(=O)O)c3)cc2)nc2ccccc21 [BRI-12424] | 21 ± 10 | 52 ± 9 | 0.18 ± 0.03 µM | 9 ± 5 | 0.22 ± 0.03 | 50.8 | ≥ 50 | 71 ± 19 | partial antagonism | 79.7 | < 50 | 7 ± 5 |  |  |  |  |  |  |  | 
2 | NC(=O)c1ccsc1NC(=O)CSc1nnc(-c2c[nH]c3ccccc23)o1 [BRI-12359] | 82 ± 11 | 105 ± 7 | 0.7 µM and 0.72 µM | 65 ± 11 | 1.03 ± 0.28 | 5.59 |  | 121 ± 13 | completely inhibit | 36.2 | ≥ 50 | 92 ± 15 | practically full inhibition | 30 to 40 µM and 32 µM | 6.46 ± 0.43 | fully abolished | 0.34 ± 0.09 | 6.5 ± 0.1 −log | 105 ± 37 | 4.0 ± 0.2 −log
3 | NC(=O)c1ccccc1Oc1ccc(NC(=O)c2ccc3nc(C(F)(F)F)cn3c2)cc1 [BRI-12417] | 59 ± 12 | 83 ± 14 | 0.7 µM and 0.68 µM | 32 ± 5 | 3.1 ± 0.63 | 54.7 | ≥ 50 | 100 ± 17 | completely inhibit | 74.4 | < 50 | 54 ± 6 |  | 30 to 40 µM and 38 µM |  |  |  |  |  | 
